The values that follow come from the supplement of paper PMC10307832.

Common to all, as to test: relative viability (nuclei count vs DMSO), 5 days (fraction); higher = more cells survive
Compound in the assay “Vandetanib + Pemetrexed”: COc1cc2/c(=N/c3ccc(Br)cc3F)nc[nH]c2cc1OCC1CCN(C)CC1 [Vandetanib] + Nc1nc2[nH]cc(CCc3ccc(C(=O)N[C@@H](CCC(=O)O)C(=O)O)cc3)c2c(=O)[nH]1 [Pemetrexed] (partner 0.2 µM)
In a few lines: (§1)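 A single step with final 0.05% Triton X-100, 1% formaldehyde and 1 ug/ml Hoechst fixed the cells and stained nuclei 5 days after treatment. Lung cancer cell lines in 1536-well plates had been treated by pin tool the day after seeding with one drug alone or a fixed anchor-drug dose plus five library-drug doses (not always all listed) in √10 steps, and nuclei were counted on 4× images. Relative viability is the ratio of nuclei in treated wells to nuclei in vehicle wells, taken as the median of duplicate plates.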

Compound in the assay “CUDC-101 + Vorinostat”: C#Cc1cccc(Nc2ncnc3cc(OC)c(OCCCCCCC(=O)NO)cc23)c1 [CUDC-101] + O=C(CCCCCCC(=O)Nc1ccccc1)NO [Vorinostat] (partner 1 µM)
In a few lines:
as §1

Compound in assay [1]: C1=CC=C2C(=C1)N=C(S2)C(C#N)C3=NC(=NC=C3)NCCC4=CN=CC=C4 + CS(=O)(=O)CCNCc1ccc(-c2ccc3ncnc(Nc4ccc(OCc5cccc(F)c5)c(Cl)c4)c3c2)o1 [Lapatinib] (partner 2 µM)
The method in brief: as §1

Compound in the assay “Vandetanib + Crizotinib”: COc1cc2/c(=N/c3ccc(Br)cc3F)nc[nH]c2cc1OCC1CCN(C)CC1 [Vandetanib] + C[C@@H](Oc1cc(-c2cnn(C3CCNCC3)c2)cnc1N)c1c(Cl)ccc(F)c1Cl [Crizotinib] (partner 1 µM)
In a few lines: as §1

Take UMC-11: the relative viability in the assay with Vandetanib + Pemetrexed (first compound 0.02 µM) turned out to be 0.764; with Vandetanib + Pemetrexed (first compound 0.06325 µM), 0.799; in the assay with Vandetanib + Pemetrexed (first compound 0.2 µM), 0.801; with Vandetanib + Pemetrexed (first compound 0.6325 µM), 0.721; with Vandetanib + Pemetrexed (first compound 2 µM), 0.667; in the assay with CUDC-101 + Vorinostat (first compound 0.01 µM), 0.359. Moreover, the relative viability in the assay with CUDC-101 + Vorinostat (first compound 0.03162 µM) came out at 0.317; with CUDC-101 + Vorinostat (first compound 0.1 µM), 0.32; with CUDC-101 + Vorinostat (first compound 0.3162 µM) it was 0.129; in the assay with CUDC-101 + Vorinostat (first compound 1 µM) it was 0.0877; in assay [1] (first compound 0.005 µM) it was 0.902; in assay [1] (first compound 0.01581 µM) it was 0.877. Moreover, the relative viability in assay [1] (first compound 0.05 µM) is 0.843; in assay [1] (first compound 0.1581 µM) it was 1.59; in assay [1] (first compound 0.5 µM), 0.901; in the assay with Vandetanib + Crizotinib (first compound 0.02 µM), 0.588; in the assay with Vandetanib + Crizotinib (first compound 0.06325 µM), 0.654; in the assay with Vandetanib + Crizotinib (first compound 0.2 µM), 0.632. The relative viability with Vandetanib + Crizotinib (first compound 0.6325 µM) stood at 0.494; with Vandetanib + Crizotinib (first compound 2 µM), 0.61.
